In this experiment the target is T1, F508delCFTR (Homo sapiens, UniProt P13569, DEL508-508).
T1 construct: expressed in transfected cells; host or cells: CFBE41o- human lung derived epithelial cells (CFBE41o-F508delCFTR-HRP), doxycycline-inducible
In words: Cell Surface Expression-Horse Radish Peroxidase (CSE-HRP) Assay.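 For EC50 (with co-corrector): co-corrector chromenyl benzoic acid corrector at 2 or 3 µM.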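 For Maximum % activity (without co-corrector): % of on-plate positive control chromenyl benzoic acid corrector at 2 or 3 µM.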 Type of experiment: cell-based. The conditions noted are these: for Maximum % activity (with co-corrector) / Emax: maximum at any tested concentration; for Emax: read-out: Maximum % activity (without co-corrector). Summed up:
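Corrector compounds were given as 8-point 3-fold series from 20 or 30 μM, with or without a 2 μM co-corrector, for 18-24 h at 33 °C. Surface HRP was read by luminol luminescence as % of positive control; variable-Hill-slope sigmoidal fitting gave EC50 from triplicate plates.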

Setting [1] is: test compound alone, without co-corrector, read-out: EC50 (without co-corrector).
[2] abbreviates: with co-corrector, read-out: EC50 (with co-corrector).
Setting [3] is: test compound with co-corrector.
The mark [4] stands for this setting: test compound with co-corrector, read-out: EC50 (with co-corrector).
[5] abbreviates: test compound without co-corrector.
Setting [6] is: test compound without co-corrector, read-out: EC50 (without co-corrector).

Each structure is given as a SMILES string. Like-named read-outs stand apart in the source and are kept apart here. Bounds are passed on as bounds.

T1 sequence (P13569 with tags, fused parts or gaps DEL508-508): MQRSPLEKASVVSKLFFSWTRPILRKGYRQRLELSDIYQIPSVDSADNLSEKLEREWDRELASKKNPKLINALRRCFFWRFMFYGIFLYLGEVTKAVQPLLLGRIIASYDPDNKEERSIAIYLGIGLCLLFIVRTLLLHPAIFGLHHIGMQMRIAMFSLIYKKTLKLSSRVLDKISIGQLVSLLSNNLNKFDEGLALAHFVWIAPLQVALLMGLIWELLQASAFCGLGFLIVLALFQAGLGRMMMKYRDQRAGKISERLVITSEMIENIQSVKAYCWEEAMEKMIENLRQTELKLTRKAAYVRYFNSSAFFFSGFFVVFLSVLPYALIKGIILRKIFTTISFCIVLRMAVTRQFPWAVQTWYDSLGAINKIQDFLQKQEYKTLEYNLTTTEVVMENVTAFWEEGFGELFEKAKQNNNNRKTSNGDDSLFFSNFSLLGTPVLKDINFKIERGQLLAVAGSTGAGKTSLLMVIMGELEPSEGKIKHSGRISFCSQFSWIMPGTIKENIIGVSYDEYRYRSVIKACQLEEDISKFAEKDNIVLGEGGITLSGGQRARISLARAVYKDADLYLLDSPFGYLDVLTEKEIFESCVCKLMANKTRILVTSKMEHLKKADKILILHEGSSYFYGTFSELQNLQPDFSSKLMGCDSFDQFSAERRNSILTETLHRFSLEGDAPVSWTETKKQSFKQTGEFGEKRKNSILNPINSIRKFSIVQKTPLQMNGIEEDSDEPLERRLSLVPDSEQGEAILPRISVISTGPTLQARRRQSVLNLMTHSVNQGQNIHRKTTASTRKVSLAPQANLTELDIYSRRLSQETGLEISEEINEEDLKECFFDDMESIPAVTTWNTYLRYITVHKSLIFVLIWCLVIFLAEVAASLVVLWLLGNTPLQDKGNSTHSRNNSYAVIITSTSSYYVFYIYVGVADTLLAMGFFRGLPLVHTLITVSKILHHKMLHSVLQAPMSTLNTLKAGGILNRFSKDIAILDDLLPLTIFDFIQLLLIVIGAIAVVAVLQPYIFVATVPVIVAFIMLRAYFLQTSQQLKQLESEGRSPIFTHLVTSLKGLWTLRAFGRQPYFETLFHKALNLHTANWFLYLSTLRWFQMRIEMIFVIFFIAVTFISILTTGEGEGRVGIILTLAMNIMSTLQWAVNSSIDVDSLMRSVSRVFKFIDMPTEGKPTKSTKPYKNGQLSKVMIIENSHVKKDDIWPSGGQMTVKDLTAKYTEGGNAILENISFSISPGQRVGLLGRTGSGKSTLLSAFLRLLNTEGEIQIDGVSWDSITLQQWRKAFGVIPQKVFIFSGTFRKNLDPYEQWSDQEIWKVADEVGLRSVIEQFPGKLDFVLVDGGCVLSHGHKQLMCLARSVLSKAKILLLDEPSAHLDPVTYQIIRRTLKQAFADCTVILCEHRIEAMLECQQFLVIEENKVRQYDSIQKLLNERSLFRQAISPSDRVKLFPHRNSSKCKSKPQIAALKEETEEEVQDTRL

On to `COc1cc(C2CCC2)cc(OC)c1C1(C(=O)NS(=O)(=O)c2cccc3nc(C)ccc23)CC1` [II-69], for which the EC50 is, setting by setting: under setting [1], less than 3 µM; under setting [2], less than 3 µM. Moreover, the “Maximum % activity (with co-corrector)” value (with co-corrector) was “+++ (≥350)”. Moreover, the Emax (without co-corrector) was more than 150%.
With `COc1ccc(C2CCC2)cc1C1(C(=O)NS(=O)(=O)c2cccn3nccc23)CCC1` [Example I-23, 1-(5-cyclobutyl-2-methoxyphenyl)-N-(pyrazolo[1,5-a]pyridine-4-sulfonyl)cyclobutane-1-carboxamide], the EC50 under setting [1] lay within 3 to 10 µM and the 50% effective concentration (EC50) under setting [2] was less than 3 µM. Where the note is “with co-corrector”, the “Maximum % activity (with co-corrector)” value is given as “+++ (≥350)”. The Emax (without co-corrector) is more than 150%.
Consider `CCOc1ncc(CC)cc1C1(C(=O)NS(=O)(=O)c2cccc3ncccc23)CC1` [Example GI-116, 1-(2-ethoxy-5-ethylpyridin-3-yl)-N-(quinoline-5-sulfonyl)cyclopropane-1-carboxamide], for which the “Maximum % activity (with co-corrector)” value under setting [3] is reported as “+++ (≥350)”. The EC50 by setting is: under setting [4], less than 3 µM; under setting [6], 3 to 10 µM. In addition, the Emax under setting [5] is more than 150%.
In the case of `COc1cccc(-c2cnn(C)c2)c1C1(C(=O)NS(=O)(=O)c2cccc3ncccc23)CC1` [Example III-122, 1-[2-methoxy-6-(1-methyl-1H-pyrazol-4-yl)phenyl]-N-(quinoline-5-sulfonyl)cyclopropane-1-carboxamide], the EC50 under setting [1] fell in the range of 3 to 10 µM and the EC50 under setting [2] is 3 to 10 µM. In addition, the “Maximum % activity (with co-corrector)” value (with co-corrector) is “+++ (≥350)”. Besides, the Emax (without co-corrector) was more than 150%.
As to `COc1ccc(C)c(C)c1C1(C(=O)NS(=O)(=O)c2cccc3nc(C)ccc23)CC1` [II-51], the EC50 is, setting by setting: under setting [1], less than 3 µM; under setting [2], less than 3 µM. Further, the “Maximum % activity (with co-corrector)” value (with co-corrector) is recorded as “+++ (≥350)”. Further, under “without co-corrector”, the Emax is more than 150%.
In the case of `COc1ncc(C(F)(F)F)cc1C1(C(=O)NS(=O)(=O)c2cccc3[nH]ccc23)CC1` [Example I-22, N-(1H-indole-4-sulfonyl)-1-[2-methoxy-5-(trifluoromethyl)pyridin-3-yl]cyclopropane-1-carboxamide], the EC50 was 3 to 10 µM under setting [1] and less than 3 µM under setting [2]. Moreover, where the note is “with co-corrector”, the “Maximum % activity (with co-corrector)” value is on record as “+++ (≥350)”. Further, the Emax (without co-corrector) was more than 150%.
`CCc1ncc(OC)cc1C1(C(=O)NS(=O)(=O)c2cccc3ncccc23)CC1` [GII-17, 1-(2-ethyl-5-methoxypyridin-3-yl)-N-(quinoline-5-sulfonyl)cyclopropane-1-carboxamide]: the “Maximum % activity (with co-corrector)” value under setting [3] is “++ (≥150 and <350)”. For the same compound, the EC50 is, setting by setting: under setting [4], 3 to 10 µM; under setting [6], 3 to 10 µM. In addition, the Emax under setting [5] is less than 50%.
Consider `Cc1cnc(OCC(C)C)c(C2(C(=O)NS(=O)(=O)c3cccc4[nH]ccc34)CC2)c1` [Example GI-44, N-(1H-indole-4-sulfonyl)-1-[5-methyl-2-(2-methylpropoxy)pyridin-3-yl]cyclopropane-1-carboxamide], for which the “Maximum % activity (with co-corrector)” value under setting [3] is recorded as “+++ (≥350)”. Moreover, the EC50 is less than 3 µM under setting [4] and less than 3 µM under setting [6]. Further, the Emax under setting [5] is more than 150%.
`CCC(C)c1ccc(OC)c(C2(C(=O)NS(=O)(=O)c3cccc4c3CCCN4)CCC2)c1` (stereo not shown) [II-22]: the EC50 by setting is: under setting [1], 3 to 10 µM; under setting [2], less than 3 µM. In addition, the “Maximum % activity (with co-corrector)” value (with co-corrector) is listed as “+++ (≥350)”. Moreover, the Emax (without co-corrector) is more than 150%.
The matching figures for `CCc1ccc(O[C@H](C)COC)c(C2(C(=O)NS(=O)(=O)c3cccc4nc(C)ccc34)CC2)c1` [Example I-112, 1-(5-ethyl-2-{[(2R)-1-methoxypropan-2-yl]oxy}phenyl)-N-(2-methylquinoline-5-sulfonyl)cyclopropane-1-carboxamide]: less than 3 µM, less than 3 µM, “+++ (≥350)” and more than 150%.

In general, EC50 refers to the midpoint of the concentration-response curve.

The values above are taken from patent publication US10829473B2, “Modulators of the cystic fibrosis transmembrane conductance regulator protein and methods of use” (AbbVie Overseas S.Á.R.L., priority 2017, dated 2020).
